Earlier results in patent publication US20070218155A1, “Methods and compositions for treating dyslipidaemia” (priority 2004, published 2007).

What was measured:
[1] = literature statement; cited from earlier work
HMG CoA reductase = target: T1, HMG CoA reductase (Homo sapiens, UniProt P04035); conditions: HepG2 cells; comparison value; cited from earlier work
T1 construct: host or cells: HepG2
T1 sequence (P04035 1-888): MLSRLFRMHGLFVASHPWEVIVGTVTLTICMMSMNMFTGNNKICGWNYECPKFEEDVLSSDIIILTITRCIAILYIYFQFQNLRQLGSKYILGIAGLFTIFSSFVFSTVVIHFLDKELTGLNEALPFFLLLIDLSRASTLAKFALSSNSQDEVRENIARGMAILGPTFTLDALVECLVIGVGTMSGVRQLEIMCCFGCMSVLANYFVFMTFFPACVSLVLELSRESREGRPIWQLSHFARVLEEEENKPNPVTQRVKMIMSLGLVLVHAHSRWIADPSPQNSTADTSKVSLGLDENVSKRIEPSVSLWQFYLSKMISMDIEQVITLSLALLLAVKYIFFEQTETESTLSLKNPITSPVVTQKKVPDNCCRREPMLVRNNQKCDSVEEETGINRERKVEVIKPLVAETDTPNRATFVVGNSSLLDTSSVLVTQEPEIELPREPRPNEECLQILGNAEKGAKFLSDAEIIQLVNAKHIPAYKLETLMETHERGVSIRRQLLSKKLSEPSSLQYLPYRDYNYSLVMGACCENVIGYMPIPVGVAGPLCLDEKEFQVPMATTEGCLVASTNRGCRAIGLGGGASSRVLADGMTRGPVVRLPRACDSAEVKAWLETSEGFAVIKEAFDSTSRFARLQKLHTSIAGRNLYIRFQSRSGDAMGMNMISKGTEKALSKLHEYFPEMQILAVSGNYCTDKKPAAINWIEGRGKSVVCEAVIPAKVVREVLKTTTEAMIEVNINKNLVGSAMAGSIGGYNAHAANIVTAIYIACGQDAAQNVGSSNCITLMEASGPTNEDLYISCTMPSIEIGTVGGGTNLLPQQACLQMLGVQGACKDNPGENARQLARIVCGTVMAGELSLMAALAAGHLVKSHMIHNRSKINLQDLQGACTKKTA

[2] = system: DGAT activity in intact Raji cells; conditions: Tabata et al.; cited from earlier work

Structure (SMILES) | estrogenic activity [1] | inhibition of HMG CoA reductase (HMG CoA reductase) | inhibition of triacylglycerol formation / DGAT activity in intact Raji cells [2]
CC(C)=CCc1c(O)cc(O)c2c1O[C@H](c1ccc(O)cc1)CC2=O [8-prenylnaringenin, 8-prenylnaringenin] | potent estrogenic activity | – | –
CC(C)c1c(C(=O)Nc2ccccc2)c(-c2ccccc2)c(-c2ccc(F)cc2)n1CC[C@@H](O)C[C@@H](O)CC(=O)O [Atorvastatin] | – | about 96% | –
COc1cc(O)c(CC=C(C)C)c(O)c1C(=O)/C=C/c1ccc(O)cc1 [xanthohumol] | does not exhibit estrogenic activity | – | inhibited DGAT activity specifically in human cells
